{
  "source": "paper PMC13538172",
  "about": "“Zonisamide nanodiamonds for brain targeting: A comprehensive study utilising in silico, in vitro, in vivo, and molecular investigation for successful nose-to-brain delivery for epilepsy management” (Drug Delivery and Translational Research, 2025)",
  "test_system": "neuron-specific enolase (NSE)",
  "assay": "Serum NSE by ELISA in TLE rats",
  "type": "in vivo",
  "settings": "compared to the TLE control rats; intranasal, 7 days",
  "protocol": "Temporal lobe epilepsy (TLE) was induced in rats using the pilocarpine model according to the method of Arshad et al.. Prior to the experiment, rats were housed in plastic cages at October University for Modern Science and Arts under controlled environmental conditions (temperatures of 25°±3°C and 50% humidity) with free access to water and softened standard pellet chow. The rats were injected with pilocarpine (300 mg/kg; i.p.) to induce status epilepticus (SE). Atropine (1 mg/kg; i.p.) was injected 30 minutes before pilocarpine injection to antagonize the peripheral muscarinic activity. SE was defined using the modified Racine scale by observing seizure severity categorized as stages 4 and 5. […] The SE seizures were left to last for 3 hours to induce hippocampus damage, after which diazepam (10 mg/kg; i.p.) was injected to attenuate the seizures. Lubricant ophthalmic gel was applied with a cotton swab to each eye to prevent the corneas from drying out during the seizures. The rats were hydrated with sterile Ringer's lactate injections (1 mL, i.p.) for 3 days post-SE induction. […]\nThe serum levels of neuron-specific enolase (NSE), matrix metallopeptidase-9 (MMP-9), neurofilament light polypeptide (NEFL), and brain-derived neurotrophic factor (BDNF) were measured by ELISA technique using the following standard kits CAT no. […]",
  "data": [
    {"smiles": "NS(=O)(=O)Cc1noc2ccccc12", "note": "[ZNS, Zonisamide]", "values": [
      {"measurement": "decrease in serum level of NSE", "value": 30.6, "unit": "%"}
    ]}
  ]
}
